Where two headings read alike, the source gives them in different places.
Tested on: HIV-1 (NL4-3 strain)
Assay: Assay for inhibition of HIV replication (ViKinG; infected MT4-GFP cells)
Format: cell-based
Protocol: Assay for inhibition of HIV replication
MT4-GFP cells (250,000 cells/ml) were bulk-infected with HIV-1 (NL4-3 strain) at low multiplicity of infection (MOI) in RPMI+10% FBS for 24 hours. […] Test compounds were serial-diluted in DMSO on ECHO. The infected MT4-GFP cells were added to a 384-well poly-D-lysine coated black plate with clear bottom in which the diluted test compounds were placed. The cells were seeded at 8,000 cells per well and the final DMSO concentration was 0.4%. The infected cells (Green GFP cells) were quantified at both 24 and 48 hours post incubation using Acumen eX3. Viral reproductive ratio (R0) was determined using the number of infected cells at 48 hours divided by the number of infected cells at 24 hours. Percent viral growth inhibition was calculated by [1−(R−Rtripledrug)/(RDMSO−Rtripledrug)]*100. Compound potency IP or IC50 was determined by a 4-parameter dose response curve analysis.

[1] = MT4-GFP cells infected with HIV-1 NL4-3, 0% normal human serum (NHS), read-out: ViKinG IP (nM) with 0% NHS
[2] = MT4-GFP cells infected with HIV-1 NL4-3, 100% normal human serum (NHS), read-out: ViKinG IP (nM) with 100% NHS
[3] = MT4-GFP cells infected with HIV-1 NL4-3, 10% normal human serum (NHS), read-out: ViKinG IP (nM) with 10% NHS
[4] = Human immunodeficiency virus 1, NL43, MT4-GFP cells infected with HIV-1 NL4-3, 0% normal human serum (NHS), read-out: ViKinG IP (nM) with 0% NHS
[5] = Human immunodeficiency virus 1, NL43, MT4-GFP cells infected with HIV-1 NL4-3, 10% normal human serum (NHS), read-out: ViKinG IP (nM) with 10% NHS
[6] = Human immunodeficiency virus 1, NL43, MT4-GFP cells infected with HIV-1 NL4-3, 100% normal human serum (NHS), read-out: ViKinG IP (nM) with 100% NHS

Compound | IC50 [1] [nM] | IC50 [3] [nM] | other results
CCN1C(=O)c2c(O)c(=O)c(-c3nnc(Cc4ccc(F)cc4F)s3)cn2N(C)C12CCC(C(=O)N(C)CC(F)(F)F)CC2 (stereo not drawn) [Compound 103] | 6.88 | – | IC50 [2]: 143 nM
CN1C(=O)c2c(O)c(=O)c(-c3nnc(Cc4ccc(F)cc4F)s3)cn2N(C)C12CCC(C(N)=O)CC2 (stereo not drawn) [Compound 106] | 186 | 812 | –
CN1C(=O)c2c(O)c(=O)c(-c3nnc(Cc4ccc(F)cc4F)s3)cn2N(C)C12CCC(C(N)=O)CC2 (stereo not drawn) [Compound 107] | 4.96 | 46.4 | –
CN(CC(F)(F)F)C(=O)C1CCC2(CC1)N(C)C(=O)c1c(O)c(=O)c(-c3nnc(Cc4ccc(F)cc4F)s3)cn1N2C (stereo not drawn) [Compound 108] | – | – | IC50 [4]: 24 nM; IC50 [5]: 16.1 nM; IC50 [6]: 478 nM
CN(C(=O)C1CCC2(CC1)N(C)C(=O)c1c(O)c(=O)c(-c3nnc(Cc4ccc(F)cc4F)s3)cn1N2C)C1CC1 (stereo not drawn) [Compound 109] | 12.1 | – | IC50 [5]: 18.2 nM
CN(C(=O)C1CCC2(CC1)N(C)C(=O)c1c(O)c(=O)c(-c3nnc(Cc4ccc(F)cc4F)s3)cn1N2C)C1CC1 (stereo not drawn) [Compound 110] | 5.82 | 10.7 | –
CN1C(=O)c2c(O)c(=O)c(-c3nnc(Cc4ccc(F)cc4F)s3)cn2N(C)C12CCC(C(=O)NCC(F)(F)F)CC2 (stereo not drawn) [Compound 111] | 26.6 | 193 | –
CN1C(=O)c2c(O)c(=O)c(-c3nnc(Cc4ccc(F)cc4F)s3)cn2N(C)C12CCC(C(=O)NCC(F)(F)F)CC2 (stereo not drawn) [Compound 112] | 3.36 | 11.1 | –
CN1C(=O)c2c(O)c(=O)c(-c3nnc(Cc4ccc(F)cc4F)s3)cn2N(C)C12CCC(C(=O)NC1(C)CC1)CC2 (stereo not drawn) [Compound 113] | 22.2 | 72.2 | –
CN1C(=O)c2c(O)c(=O)c(-c3nnc(Cc4ccc(F)cc4F)s3)cn2N(C)C12CCC(C(=O)NC1(C)CC1)CC2 (stereo not drawn) [Compound 114] | 4.69 | 9.07 | –
CN1C(=O)c2c(O)c(=O)c(-c3nnc(Cc4ccc(F)cc4F)s3)cn2N(C)C12CCC(C(=O)N1CCCC1)CC2 (stereo not drawn) [Compound 115] | 16.4 | 39.5 | –
CN1C(=O)c2c(O)c(=O)c(-c3nnc(Cc4ccc(F)cc4F)s3)cn2N(C)C12CCC(C(=O)N1CCCC1)CC2 (stereo not drawn) [Compound 116] | 3.94 | 15.2 | –
CN1C(=O)c2c(O)c(=O)c(-c3nnc(Cc4ccc(F)cc4F)s3)cn2N(C)C12CCC(C(=O)N1CCC(F)(F)C1)CC2 (stereo not drawn) [Compound 117] | – | 42.7 | IC50 [4]: 20.4 nM
CN1C(=O)c2c(O)c(=O)c(-c3nnc(Cc4ccc(F)cc4F)s3)cn2N(C)C12CCC(C(=O)N1CCC(F)(F)C1)CC2 (stereo not drawn) [Compound 118] | 14.4 | 8.43 | –
CN1C(=O)c2c(O)c(=O)c(-c3nnc(Cc4ccc(F)cc4F)s3)cn2N(C)C12CCC(C(=O)N1CC(F)(F)C1)CC2 (stereo not drawn) [Compound 119] | – | 35.6 | IC50 [4]: 5.26 nM; IC50 [2]: 189 nM
CN1C(=O)c2c(O)c(=O)c(-c3nnc(Cc4ccc(F)cc4F)s3)cn2N(C)C12CCC(C(=O)N1CC(F)(F)C1)CC2 (stereo not drawn) [Compound 120] | 5.51 | 11.7 | IC50 [2]: 516 nM
COCCNC(=O)C1CCC2(CC1)N(C)C(=O)c1c(O)c(=O)c(-c3nnc(Cc4ccc(F)cc4F)s3)cn1N2C (stereo not drawn) [Compound 121] | 102 | 240 | –
COCCNC(=O)C1CCC2(CC1)N(C)C(=O)c1c(O)c(=O)c(-c3nnc(Cc4ccc(F)cc4F)s3)cn1N2C (stereo not drawn) [Compound 122] | 5.51 | 18.4 | –
CN1C(=O)c2c(O)c(=O)c(-c3nnc(Cc4ccc(F)cc4F)s3)cn2N(C)C12CCC(C(=O)NCC1(O)CC1)CC2 (stereo not drawn) [Compound 123] | 47.1 | 103 | –
CN1C(=O)c2c(O)c(=O)c(-c3nnc(Cc4ccc(F)cc4F)s3)cn2N(C)C12CCC(C(=O)NCC1(O)CC1)CC2 (stereo not drawn) [Compound 124] | 11.3 | 22.6 | –
CN(C)CCNC(=O)C1CCC2(CC1)N(C)C(=O)c1c(O)c(=O)c(-c3nnc(Cc4ccc(F)cc4F)s3)cn1N2C (stereo not drawn) [Compound 125] | 374 | 543 | –
CN(C)CCNC(=O)C1CCC2(CC1)N(C)C(=O)c1c(O)c(=O)c(-c3nnc(Cc4ccc(F)cc4F)s3)cn1N2C (stereo not drawn) [Compound 126] | 24.3 | 82.2 | –
CN1C(=O)c2c(O)c(=O)c(-c3nnc(Cc4ccc(F)cc4F)s3)cn2N(C)C12CCC(C(=O)NCc1cnoc1)CC2 (stereo not drawn) [Compound 127] | – | 376 | IC50 [4]: 112 nM
CN1C(=O)c2c(O)c(=O)c(-c3nnc(Cc4ccc(F)cc4F)s3)cn2N(C)C12CCC(C(=O)NCc1cnoc1)CC2 (stereo not drawn) [Compound 128] | 81.8 | 101 | –

Compound | IC50 [1] [nM] | IC50 [3] [nM] | other results
CN1C(=O)c2c(O)c(=O)c(-c3nnc(Cc4ccc(F)cc4F)s3)cn2N(C)C12CCC(C(=O)NCC1CCOC1)CC2 (stereo not drawn) [Compound 129] | 67.7 | 1080 | –
CN1C(=O)c2c(O)c(=O)c(-c3nnc(Cc4ccc(F)cc4F)s3)cn2N(C)C12CCC(C(=O)NCC1CCOC1)CC2 (stereo not drawn) [Compound 130] | 13.7 | 33.9 | –
CN1C(=O)c2c(O)c(=O)c(-c3nnc(Cc4ccc(F)cc4F)s3)cn2N(C)C12CCC(C(=O)NCc1cn(C)cn1)CC2 (stereo not drawn) [Compound 131] | 459 | 642 | –
CN1C(=O)c2c(O)c(=O)c(-c3nnc(Cc4ccc(F)cc4F)s3)cn2N(C)C12CCC(C(=O)NCc1cn(C)cn1)CC2 (stereo not drawn) [Compound 132] | 109 | 173 | –
CN1C(=O)c2c(O)c(=O)c(-c3nnc(Cc4ccc(F)cc4F)s3)cn2N(C)C12CCC(C(=O)NCc1cncs1)CC2 (stereo not drawn) [Compound 133] | 190 | 548 | –
CN1C(=O)c2c(O)c(=O)c(-c3nnc(Cc4ccc(F)cc4F)s3)cn2N(C)C12CCC(C(=O)NCc1cncs1)CC2 (stereo not drawn) [Compound 134] | 20.9 | 122 | –
COc1cc(CNC(=O)C2CCC3(CC2)N(C)C(=O)c2c(O)c(=O)c(-c4nnc(Cc5ccc(F)cc5F)s4)cn2N3C)on1 (stereo not drawn) [Compound 135] | 76.3 | – | IC50 [5]: 290 nM
COc1cc(CNC(=O)C2CCC3(CC2)N(C)C(=O)c2c(O)c(=O)c(-c4nnc(Cc5ccc(F)cc5F)s4)cn2N3C)on1 (stereo not drawn) [Compound 136] | 30.8 | 151 | –
CN1C(=O)c2c(O)c(=O)c(-c3nnc(Cc4ccc(F)cc4F)s3)cn2N(C)C12CCC(C(=O)NCC1CCS(=O)(=O)C1)CC2 (stereo not drawn) [Compound 137] | 108 | – | IC50 [5]: 707 nM
CN1C(=O)c2c(O)c(=O)c(-c3nnc(Cc4ccc(F)cc4F)s3)cn2N(C)C12CCC(C(=O)NCC1CCS(=O)(=O)C1)CC2 (stereo not drawn) [Compound 138] | 445 | 1180 | –
CN(CCNC(=O)C1CCC2(CC1)N(C)C(=O)c1c(O)c(=O)c(-c3nnc(Cc4ccc(F)cc4F)s3)cn1N2C)C(=O)OC(C)(C)C (stereo not drawn) [Compound 139] | – | 186 | IC50 [4]: 54.3 nM
CN(CCNC(=O)C1CCC2(CC1)N(C)C(=O)c1c(O)c(=O)c(-c3nnc(Cc4ccc(F)cc4F)s3)cn1N2C)C(=O)OC(C)(C)C (stereo not drawn) [Compound 140] | 61.6 | 28.2 | –
CN1C(=O)c2c(O)c(=O)c(-c3nnc(Cc4ccc(F)cc4F)s3)cn2N(C)C12CCC(C(=O)NC1CC1)C2 (stereo not drawn) [Compound 141] | – | – | IC50 [4]: 59.7 nM; IC50 [6]: 1990 nM
CN1C(=O)c2c(O)c(=O)c(-c3nnc(Cc4ccc(F)cc4F)s3)cn2N(C)C12CC[C@@H](C(=O)NC1CC1)C(C)(C)C2 (stereo partly drawn) [Compound 142] | – | – | IC50 [4]: 5.63 nM; IC50 [6]: 558 nM
CN1C(=O)c2c(O)c(=O)c(-c3nnc(Cc4ccc(F)cc4F)s3)cn2N(C)C12CC[C@@H](C(=O)NC1CC1)C(C)(C)C2 (stereo partly drawn) [Compound 143] | 7.48 | – | IC50 [2]: 817 nM
CC(C)[C@]1(C(=O)NC2CC2)CCC2(C1)N(C)C(=O)c1c(O)c(=O)c(-c3nnc(Cc4ccc(F)cc4F)s3)cn1N2C (stereo partly drawn) [Compound 144] | – | – | IC50 [4]: 10.7 nM; IC50 [6]: 205 nM
CN(C)C(=O)C1CCC2(CC1)N(C)C(=O)c1c(O)c(=O)c(-c3nnc(Cc4ccc(F)cc4)s3)cn1N2C (stereo not drawn) [Compound 145] | – | 102 | –
CN(C)C(=O)C1CCC2(CC1)N(C)C(=O)c1c(O)c(=O)c(-c3nnc(Cc4ccc(F)cc4)s3)cn1N2C (stereo not drawn) [Compound 146] | – | 9.02 | IC50 [6]: 188 nM
CN(C)C(=O)C1(C)CCC2(CC1)N(C)C(=O)c1c(O)c(=O)c(-c3nnc(Cc4ccc(F)cc4)s3)cn1N2C (stereo not drawn) [Compound 147] | – | – | IC50 [5]: 15.1 nM; IC50 [6]: 117 nM
CN(C)C(=O)C1(C)CCC2(CC1)N(C)C(=O)c1c(O)c(=O)c(-c3nnc(Cc4ccc(F)cc4)s3)cn1N2C (stereo not drawn) [Compound 148] | – | 8.6 | IC50 [2]: 119 nM
C[C@H]1CC2(CC[C@@H]1C(=O)N(C)C)N(C)C(=O)c1c(O)c(=O)c(-c3nnc(Cc4ccc(F)cc4)s3)cn1N2C (stereo partly drawn) [Compound 149] | – | – | IC50 [5]: 43.7 nM
C[C@@H]1CC2(CC[C@@H]1C(=O)N(C)C)N(C)C(=O)c1c(O)c(=O)c(-c3nnc(Cc4ccc(F)cc4)s3)cn1N2C (stereo partly drawn) [Compound 150] | – | – | IC50 [4]: 13.3 nM; IC50 [5]: 18.9 nM; IC50 [6]: 221 nM
CN1C2CCCCN2C(=O)c2c(O)c(=O)c(-c3nnc(Cc4ccc(F)cc4)s3)cn21 (stereo not drawn) [Compound 153] | – | 16.5 | IC50 [6]: 1430 nM

Source: US9714243B2, “4-pyridinonetriazine derivatives as HIV integrase inhibitors” (Merck Sharp & Dohme Corp., priority 2012, dated 2017)
